{"source": "patent US10378034B2", "about": "“Use of a N-acetylneuraminate lyase derived from the bacterium Aliivibrio salmonicida in the production of neuraminic acid and derivatives thereof” (Universitetet i Tromsø-Norges Arktiske Universitet, priority 2014, dated 2019)", "key": {"[1]": {"system": "CC(=O)N[C@H]1[C@H]([C@H](O)[C@H](O)CO)OC(O)(C(=O)O)C[C@@H]1O", "assay": "LDH-coupled continuous assay, enzyme kinetics for the cleavage reaction of Neu5Ac (AsNAL)", "type": "biochemical, Aliivibrio salmonicida", "settings": "other: cleavage reaction, Neu5Ac 1-90 mM, 50 mM Tris-HCl pH 8.5, 37° C.", "description": "(§1) Further, the enzyme kinetics for the cleavage reactions were studied using a lactate dehydrogenase (LDH)-coupled continuous assay (Comb and Roseman, 1960; Wang and Lee, 2006). The incubation mixtures contained variable amounts (1, 5, 15, 30, 45, 60, 75 and 90 mM) of Neu5Ac, 50 mM Tris-HCl, pH 8.5, 0.15 mM NADH (Sigma), 4U LDH (Sigma) and 0.315 μg of NAL in final volumes of 200 μl. Components, except the enzyme, were mixed and incubated at 37° C. for 5 min before the reactions were started by adding the specific enzyme. The measurements were done in triplicates. The decrease in absorbance at 340 nm corresponding to the oxidation of NADH by LDH in presence of released pyruvate was measured spectrophotometrically using a Spectramax M2e Microplate reader. Initial velocities were calculated using the SoftMax Pro software (Molecular Devices) and subsequently fitted to the Michaelis-Menten equation using the program GraphPad Prism 5 (GraphPad Software Inc.). The kcat values were calculated using the formula Vmax/[Enzyme]. The relationship between absorbance and substrate concentration was calculated from a standard-curve obtained by measuring the maximum absorbance from various substrate concentrations. The relationship is given by the formula: y=0.0031x+0.0052, where x is the pyruvate concentration. By using this formula, values of Vmax were converted from mOD/min to μM/min. Enzyme concentrations were converted from mg/ml to molar using the calculated molecular mass of 32257.9 g/mol (monomeric protein).\n(§2) The AsNAL Michaelis constant (KM) is somewhat higher than the KM obtained for EcNAL. However, the turnover number, kcat, is strikingly higher than for EcNAL."}, "[2]": {"target": "T1, E. coli N-acetylneuraminate lyase (EcNAL), commercially available (Sigma) (Escherichia coli, UniProt P0A6L4)", "T1 sequence (P0A6L4 1-297)": "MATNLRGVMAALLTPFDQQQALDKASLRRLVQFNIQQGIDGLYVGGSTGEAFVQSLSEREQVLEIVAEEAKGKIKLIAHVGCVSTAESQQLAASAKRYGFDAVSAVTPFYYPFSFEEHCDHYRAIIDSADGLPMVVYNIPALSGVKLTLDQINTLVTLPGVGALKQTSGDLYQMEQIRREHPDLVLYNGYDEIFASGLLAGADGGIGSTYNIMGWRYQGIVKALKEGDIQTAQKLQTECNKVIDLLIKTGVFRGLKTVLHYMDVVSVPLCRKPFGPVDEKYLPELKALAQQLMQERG", "assay": "LDH-coupled continuous assay, enzyme kinetics for the cleavage reaction of Neu5Ac (EcNAL)", "type": "biochemical", "settings": "Neu5Ac 1-90 mM, 50 mM Tris-HCl pH 8.5, 37° C.", "description": "as §1, with “The relationship is given by the formula: y=0.0031x+0.0052, where x is the pyruvate concentration. By using this formula, values of Vmax were converted from mOD/min to μM/min.” left out, “protein). […]” for “protein).”"}, "[3]": {"system": "AsNAL", "assay": "Cleavage of Neu5Ac, Neu5Gc and KDN by AsNAL (TBA assay)", "type": "biochemical, Aliivibrio salmonicida", "settings": "5 mM substrate, 6.6 μg AsNAL, HEPES pH 8.0, 1 h room temperature", "description": "The cleavage reaction of AsNAL contained 6.6 μg of AsNAL, 5 mM Neu5Gc or KDN and 124 mM HEPES buffer pH 8.0. For blank (H2O) and positive control the same components of the reactions were used, but the amount of enzyme was replaced by assay buffer. All reactions were filled up to a total volume of 50 μL with dH2O. The assay was performed in triplicate. After 1 h incubation at room temperature, the enzyme reaction was stopped by adding 2 μL concentrated H2SO4. The thiobarbituric acid (TBA) assay procedure was followed to determine the amount cleaved."}, "[4]": {"target": "Aliivibrio salmonicida LFI1238 N-acetylneuraminate lyase (AsNAL), wild type, SEQ ID NO: 1 (Aliivibrio salmonicida, UniProt B6EI04)", "assay": "LDH-coupled continuous assay, enzyme kinetics for the cleavage reaction of Neu5Ac (AsNAL)", "type": "biochemical", "settings": "Neu5Ac 1-90 mM, 50 mM Tris-HCl pH 8.5, 37° C.", "description": "as §1, §2"}, "[5]": {"system": "AsNAL", "assay": "Production of Neu5,7Ac2/Neu5,8Ac2/Neu5,9Ac2 and legionaminic acid by AsNAL (DMB-HPLC-MS)", "type": "biochemical, Aliivibrio salmonicida", "settings": "for RT 3.29 (Area), legionaminic acid / 468.1613@3.56 Area (Neu5,7Ac2) / 468.1613@4.05 Area (Neu5,8Ac2) / 468.1613@4.4 Area (Neu5,9Ac2): 15 mM substrate, 15 mM pyruvate, 28 μg AsNAL, HEPES pH 8.0", "description": "15 mM of 4-O-acetyl-2-N-acetylmannosamine (4-OAc-ManNAc) or 2,4-diacetamino-2,4,6-trideoxymannose, 15 mM of pyruvate, 28 μg of enzyme (AsNAL), 124 mM HEPES buffer, pH 8.0 and dH2O were mixed in a tube to a total volume of 200 μl. Aliquots were sampled after 1.0, 1.5 and 4.0 h for production of di-acetylated Neus. For production of Legionaminic acid aliquots were sampled after 1.0 and 3.0 h. Reactions were terminated by addition of 2 μl concentrated H2SO4. Samples were passed over Amicon Ultra spin-columns with a 10000 molecular weight cut-off (Millipore) to remove high molecular weight compounds. The low molecular weight fractions were then used in DMB-HPLC coupled to mass spectrometric analyses. Derivatization of samples with DMB were performed according to protocol given by the supplier (Sialic Acid Fluorescence Labeling Kit, Takara Inc.). Reactions were carried out for 2.5 hours at 50° C. in the dark. A reference panel with a mixture of the Sias; Neu5Gc, Neu5Ac, Neu5,7Ac2, Neu5Gc9Ac, Neu5,9Ac2 and Neu5, (7/8)9Ac3 (ProZyme Inc.) were also subjected to derivatization with DMB. DMB-labeled sialic acids were separated by HPLC using Accela HPLC (Thermo Scientific) on a LTQ Orbitrap XL Fourier Transform Mass Spectrometer (FTMS) with an Electrospray ion source (Thermo Scientific) using a positive ion profile mode fullscan (+pESI). The column used was a Hypersil Gold 50×2.1 mm, 1.9 μm reversed-phase C18 column (Thermo scientific).). Elution was achieved using water with 0.1% formic acid (A) and acetonitrile with 0.1% formic acid (B) at a flow rate of 400 μl/min.\nThe analytical conditions were set to 300° C. for capillary temperature, 4.5 kV spray voltage, m/z 350-550 scan range and 35% collision energy. The MS/MS was targeted on the masses m/z 426.15, m/z 468.16 and m/z 451.18 using Ion trap MS (ITMS)+cESI with full MS2 in scan range m/z 125-480, corresponding to the DMB derivates DMB-Neu5Ac, DMB-di-acetylated Neu and DMB-Leg."}, "[6]": {"assay": "Integrated reaction: Neu5Ac production from GlcNAc and pyruvate at alkaline pH (TBA assay)", "type": "biochemical", "description": "For ManNAc reactions, the buffer used was HEPES, pH 8.0. […] Experiments were performed in triplicate. For ManNAc experiments, aliquots were sampled after 0.5, 1.0, 1.5, 2.5 and 4.0 h. For GlcNAc experiments, aliquots were sampled after 12, 24, 36, 48 and 72 h. Reactions were terminated by addition of 2 μl concentrated H2SO4. The time needed for N-acetylneuraminic acid (Neu5Ac) production to get started under these conditions was known to take longer time based on initial test experiments. The thiobarbituric acid (TBA) assay procedure was followed to determine the amount of Neu5Ac produced. The activity was corrected for a blank value. The blank contained all the reaction components except for enzyme.\nInitially, also glycine buffer was tested at pH 10.5 and pH 11.0 for the reactions with GlcNAc. GlcNAc will chemically epimerize to ManNAc at pH values above 9.0, which the enzyme will use as substrate for the production of Neu5Ac. The epimerization is pH dependent and will increase with increasing pH. Production of Neu5Ac was higher in CAPS buffer compared to glycine buffer, so this was chosen for further experiments."}}}
{"molecule": "Aliivibrio salmonicida LFI1238 N-acetylneuraminate lyase (AsNAL), wild type, SEQ ID NO: 1 (Aliivibrio salmonicida LFI1238)", "values": [{"measurement": "Km", "setting": "[1]", "value": "53.88 ± 6.55", "unit": "mM"}, {"measurement": "kcat", "setting": "[1]", "value": 19.1, "unit": "s⁻¹"}, {"measurement": "kcat/Km", "setting": "[1]", "value": 354, "unit": "M⁻¹ s⁻¹"}]}
{"molecule": "CC(=O)N[C@H]1[C@H]([C@H](O)[C@H](O)CO)OC(O)(C(=O)O)C[C@@H]1O", "note": "(stereo partly shown) [Neu5Ac, N-acetylneuraminic acid]", "values": [{"measurement": "Vmax", "setting": "[2]", "value": "208.9 ± 16.7"}, {"measurement": "% cleaved", "setting": "[3]", "value": 82.6, "unit": "%"}, {"measurement": "Cleaved (OD)", "setting": "[3]", "value": "4.984 ± 0.016"}, {"measurement": "OD sample-blank (measures uncleaved substrate)", "setting": "[3]", "value": "1.048 ± 0.016"}, {"measurement": "Vmax", "setting": "[4]", "value": "315.5 ± 18.5"}]}
{"molecule": "CC(=O)N[C@@H]([C@H](O)[C@@H](C=O)NC(C)=O)[C@@H](C)O", "note": "[2,4-diacetamino-2,4,6-trideoxymannose]", "values": [{"measurement": "RT 3.29 (Area), legionaminic acid", "setting": "[5]; 1 h", "value": 902252}, {"measurement": "RT 3.29 (Area), legionaminic acid", "setting": "[5]; 3 h", "value": 1663378}]}
{"molecule": "O=C(O)C(=O)C[C@H](O)[C@@H](O)[C@@H](O)[C@H](O)[C@H](O)CO", "note": "[KDN, 2-keto-3-deoxy-D-glycero-D-galacto-nononic acid]", "values": [{"measurement": "% cleaved", "setting": "[3]", "value": 50.0, "unit": "%"}, {"measurement": "Cleaved (OD)", "setting": "[3]", "value": "2.658 ± 0.130"}, {"measurement": "OD sample-blank (measures uncleaved substrate)", "setting": "[3]", "value": "2.662 ± 0.130"}]}
{"molecule": "CC(=O)N[C@@H]1C(O)O[C@H](CO)[C@@H](OC(C)=O)[C@@H]1O", "note": "(stereo partly shown) [4OAc-ManNAc, 4-O-acetyl-2-N-acetylmannosamine]", "values": [{"measurement": "468.1613@3.56 Area (Neu5,7Ac2)", "setting": "[5]; 1 hour", "value": 3258981}, {"measurement": "468.1613@4.05 Area (Neu5,8Ac2)", "setting": "[5]; 1 hour", "value": 4611697}, {"measurement": "468.1613@4.4 Area (Neu5,9Ac2)", "setting": "[5]; 1 hour", "value": 20834893}, {"measurement": "468.1613@3.56 Area (Neu5,7Ac2)", "setting": "[5]; 1.5 hours", "value": 4048804}, {"measurement": "468.1613@4.05 Area (Neu5,8Ac2)", "setting": "[5]; 1.5 hours", "value": 5467510}, {"measurement": "468.1613@4.4 Area (Neu5,9Ac2)", "setting": "[5]; 1.5 hours", "value": 23706892}, {"measurement": "468.1613@3.56 Area (Neu5,7Ac2)", "setting": "[5]; 4 hours", "value": 4484920}, {"measurement": "468.1613@4.05 Area (Neu5,8Ac2)", "setting": "[5]; 4 hours", "value": 6019425}, {"measurement": "468.1613@4.4 Area (Neu5,9Ac2)", "setting": "[5]; 4 hours", "value": 26500427}, {"measurement": "production of Neu5,9Ac2, Neu5,7Ac2 and Neu5,8Ac2 relative to ManNAc as a substrate", "setting": "[5]; same conditions, pH 8.0, asNAL", "value": "30-40%"}]}
{"molecule": "O=C(CO)N[C@H]1[C@H]([C@H](O)[C@H](O)CO)OC(O)(C(=O)O)C[C@@H]1O", "note": "(stereo partly shown) [Neu5Gc, N-glycolylneuraminic acid]", "values": [{"measurement": "% cleaved", "setting": "[3]", "value": 73.9, "unit": "%"}, {"measurement": "Cleaved (OD)", "setting": "[3]", "value": "4.018 ± 0.076"}, {"measurement": "OD sample-blank (measures uncleaved substrate)", "setting": "[3]", "value": "1.422 ± 0.076"}]}
{"molecule": "EcNAL: commercially available N-acetylneuraminate lyase from E. coli (Sigma) (protein, UniProt P0A6L4 2-297, looked up) N-acetylneuraminate lyase: ATNLRGVMAALLTPFDQQQALDKASLRRLVQFNIQQGIDGLYVGGSTGEAFVQSLSEREQVLEIVAEEAKGKIKLIAHVGCVSTAESQQLAASAKRYGFDAVSAVTPFYYPFSFEEHCDHYRAIIDSADGLPMVVYNIPALSGVKLTLDQINTLVTLPGVGALKQTSGDLYQMEQIRREHPDLVLYNGYDEIFASGLLAGADGGIGSTYNIMGWRYQGIVKALKEGDIQTAQKLQTECNKVIDLLIKTGVFRGLKTVLHYMDVVSVPLCRKPFGPVDEKYLPELKALAQQLMQERG", "values": [{"measurement": "production of Neu5Ac (in words)", "setting": "[6]; pyruvate and GlcNAc 4:1, CAPS pH 11.0", "value": "low"}, {"measurement": "production of Neu5Ac (in words)", "setting": "[6]; pyruvate and GlcNAc, CAPS pH 11.5", "value": "no production was observed"}]}
